Experimental data taken from the supplement of paper PMC10307832.

compound: C1=CC2=C(C=C(C(=C2N=C1)O)N=NC3=CC4=C(C=C3)C=C(C=C4)S(=O)(=O)O)S(=O)(=O)O + CS(=O)(=O)CCNCc1ccc(-c2ccc3ncnc(Nc4ccc(OCc5cccc(F)c5)c(Cl)c4)c3c2)o1 [Lapatinib] (partner 2 µM); assay: relative viability (nuclei count vs DMSO), 5 days (fraction); higher = more cells survive; details: first compound 0.08 µM
How it was run: (§1)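 Lung cancer cell lines in 1536-well plates got either a single drug or a fixed anchor-drug dose together with five library-drug doses (not always all listed) in √10 steps, by pin tool, on the day after seeding. Nuclei were counted after 5 days, and relative viability is the treated-to-vehicle ratio of nuclei counts. Values are medians of duplicate plates.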

Cell Line	relative viability
NCI-H1975	1.08
RERF-LC-KJ	0.873
ABC-1	1.25
NCI-H358	0.436
NCI-H650	0.91
PC-3 [JPC-3]	0.483

same assay, conditions: first compound 0.253 µM

Cell Line	relative viability
NCI-H1975	0.883
RERF-LC-KJ	0.851
ABC-1	0.989
NCI-H358	0.393
NCI-H650	0.786
PC-3 [JPC-3]	0.474

same assay, conditions: first compound 0.8 µM

Cell Line	relative viability
NCI-H1975	0.833
RERF-LC-KJ	0.854
ABC-1	1.08
NCI-H358	0.469
NCI-H650	0.838
PC-3 [JPC-3]	0.484

same assay, conditions: first compound 2.53 µM

Cell Line	relative viability
NCI-H1975	0.987
RERF-LC-KJ	0.835
ABC-1	1.18
NCI-H358	0.486
NCI-H650	0.86
PC-3 [JPC-3]	0.445

same assay, conditions: first compound 8 µM

Cell Line	relative viability
NCI-H1975	0.861
RERF-LC-KJ	0.788
ABC-1	1.02
NCI-H358	0.483
NCI-H650	0.525
PC-3 [JPC-3]	0.426

compound: C1=CC2=C(C=C(C(=C2N=C1)O)N=NC3=CC4=C(C=C3)C=C(C=C4)S(=O)(=O)O)S(=O)(=O)O + C[C@@H](Oc1cc(-c2cnn(C3CCNCC3)c2)cnc1N)c1c(Cl)ccc(F)c1Cl [Crizotinib] (partner 1 µM); assay: as above; details: first compound 0.08 µM
How it was run: as §1

Cell Line	relative viability
NCI-H1975	1.1
RERF-LC-KJ	0.828
ABC-1	1.07
NCI-H358	0.582
NCI-H650	0.738
PC-3 [JPC-3]	1.07

same assay, conditions: first compound 0.253 µM

Cell Line	relative viability
NCI-H1975	0.961
RERF-LC-KJ	0.797
ABC-1	1.33
NCI-H358	0.606
NCI-H650	0.79
PC-3 [JPC-3]	1.02

same assay, conditions: first compound 0.8 µM

Cell Line	relative viability
NCI-H1975	1.01
RERF-LC-KJ	0.782
ABC-1	1.01
NCI-H358	0.616
NCI-H650	0.764
PC-3 [JPC-3]	0.999

same assay, conditions: first compound 2.53 µM

Cell Line	relative viability
NCI-H1975	0.994
RERF-LC-KJ	0.872
ABC-1	1.27
NCI-H358	0.618
NCI-H650	0.712
PC-3 [JPC-3]	0.978

same assay, conditions: first compound 8 µM

Cell Line	relative viability
NCI-H1975	0.929
RERF-LC-KJ	0.869
ABC-1	1.23
NCI-H358	0.351
NCI-H650	0.818
PC-3 [JPC-3]	0.966

compound: O=C(NC1CCNCC1)c1n[nH]cc1NC(=O)c1c(Cl)cccc1Cl [AT-7519] + COc1cccc2cc(-c3nc([C@H]4CC[C@H](C(=O)O)CC4)n4ncnc(N)c34)[nH]c12 [OSI-027] (partner 0.5 µM); assay: as above; details: first compound 0.01 µM
How it was run: as §1

Cell Line	relative viability
NCI-H1975	0.827
RERF-LC-KJ	0.572
ABC-1	0.523
NCI-H358	0.83
NCI-H650	0.529
PC-3 [JPC-3]	0.706

same assay, conditions: first compound 0.03162 µM

Cell Line	relative viability
NCI-H1975	0.778
RERF-LC-KJ	0.53
ABC-1	0.455
NCI-H358	0.676
NCI-H650	0.496
PC-3 [JPC-3]	0.904

same assay, conditions: first compound 0.3162 µM

Cell Line	relative viability
NCI-H1975	0.503
RERF-LC-KJ	0.54
ABC-1	0.326
NCI-H358	0.527
NCI-H650	0.498
PC-3 [JPC-3]	0.697

same assay, conditions: first compound 1 µM

Cell Line	relative viability
NCI-H1975	0.191
RERF-LC-KJ	0.25
ABC-1	0.151
NCI-H358	0.194
NCI-H650	0.711
PC-3 [JPC-3]	0.696

compound: C1=CC2=C(C=C(C(=C2N=C1)O)N=NC3=CC4=C(C=C3)C=C(C=C4)S(=O)(=O)O)S(=O)(=O)O + C[C@]1(O)C[C@@H](c2nc(-c3ccc4ccc(-c5ccccc5)nc4c3)c3c(N)nccn32)C1 [Linsitinib] (partner 1 µM); assay: as above; details: first compound 0.08 µM
How it was run: as §1

Cell Line	relative viability
NCI-H1975	1.02
RERF-LC-KJ	0.945
ABC-1	0.8
NCI-H358	0.796
NCI-H650	0.652
PC-3 [JPC-3]	0.998

same assay, conditions: first compound 0.253 µM

Cell Line	relative viability
NCI-H1975	0.913
RERF-LC-KJ	0.954
ABC-1	0.632
NCI-H358	0.682
NCI-H650	0.755
PC-3 [JPC-3]	0.93

same assay, conditions: first compound 0.8 µM

Cell Line	relative viability
NCI-H1975	0.92
RERF-LC-KJ	0.888
ABC-1	0.86
NCI-H358	0.724
NCI-H650	0.884
PC-3 [JPC-3]	0.94

same assay, conditions: first compound 2.53 µM

Cell Line	relative viability
NCI-H1975	0.918
RERF-LC-KJ	0.979
ABC-1	0.688
NCI-H358	0.74
NCI-H650	0.769
PC-3 [JPC-3]	0.965

same assay, conditions: first compound 8 µM

Cell Line	relative viability
NCI-H1975	0.908
RERF-LC-KJ	0.87
ABC-1	0.738
NCI-H358	0.336
NCI-H650	0.576
PC-3 [JPC-3]	0.97
